“Also recorded” adds a separate entry of the source. Marks after values point to notes of the source that are not given here.
Columns and labels:
anxious dogs = experiment: Efficacy of pheromone/INTEROMONE collars on dog heart rate, 24 h baseline and after Fog Horn startle (Example 4); assay type: in vivo
Description: Heart rate and surface temperature were measured by telemetry.
The study was conducted in two phases: Baseline and after startle. In the baseline study each of the four dogs received each collar treatment in random order for two days at a time. Heart rate and surface temperature were collected each 5 seconds for 24 hours. In the second phase, dogs were startled with a 110 dB Fog Horn and heart rate was measured each 1 second for 10 minutes before and 2 hours after startle.

dogs [1] = experiment: Spray to face of dogs, heart rate for two hours (Example 10); assay type: in vivo, dog
Description: A spray composition comprising rabbit pheromone as an INTEROMONE® was prepared in accordance with Example 9. Four dogs were fitted with cloth jackets that contained electrodes to measure their heart rate. One dog was sprayed with the 2-methylbut-2-enal composition, one dog was sprayed with a placebo, and two dogs were sprayed with pheromone-based products currently on the market for purposes of modifying behavior. […] Data were collected for two hours following application of the spray to the facial/snout region of the four dogs. The control period was indicated as time zero (“0”) on FIG. 1 and FIG. 2.

nervous dogs = experiment: Example 11 Study 2: behavior and heart rate after collar or spray with startle; assay type: in vivo, dog
Description: (§1) Eight dogs were obtained from a local contract research facility and assessment was made as to general dog health, behavior and heart rate. The dogs were estimated to be 2 to 7 years of age, mixed breed, and weighed averagely 8.1±0.18 kg at the start of the studies. […] Upon arrival each dog was bathed using shampoo containing flea and tick medicine (Hartz Mountain Corp. Secaucus, N.J. USA), and their body hair was shaved. Each dog was kept in a single room, which had 100% fresh air intake and exhaust. The dogs were fed twice (am and pm) per day ad libitum. At that time, the room was cleaned and the dogs obtained extra exercise. Water was available ad libitum.
(§2) Dog behavior was captured on video media at a sampling rate of 30 frames per second. Video records were reviewed in real time (with tape playing 30 frames per second). A scan sampling method was used to record dog behaviors each minute or each 5 minutes depending on the particular study. If the sample period was 120 minutes with four periods (0-30=0, 30-60=30, 60-90=60, and 90-120-90 min), then a scan sample was recorded each 1 minute. If the sample period was 24 hours, then the scan sample was collected each 5 minutes and summarized each hour. For example, pacing is when a dog walks in a stereotyped manner for minutes to hours. Because it was not easy to distinguish walking from pacing, the behaviors were merged. In addition, the video records could not clearly distinguish lying down and awake versus lying down and sleeping, therefore there was no separate description for these two behaviors.
(§3) Heart rate during the studies was measured by the use of a non-invasive telemetry system (Data Science International, St. Paul, Minn., USA). Leads were placed in contact with the dogs' shaved skin. Sensors measured heart rate, surface temperature and general activity. Data were transmitted to a receiving computer in another room. The sampling rate varied with the study, but was 5 seconds for the first two hours after treatments and then each 1 minute for 24 hours (depending on the particular study). For surface temperature measurements of the dog subjects, a thermistor was located against the skin of each dog. It recorded the surface temperature to the neared 0.1° C. on the same interval as the heart rate data.
(§4) Behavior and physiological data (heart rate and surface temperature) were analyzed by least squares analysis of variance using SAS (2011) software and the general linear models procedures. The experimental design of each study was a specialized randomized complete block in a Latin square design with data collected as a split plot over time. Dogs represented the blocks. Each dog received each treatment randomly in successive days or weeks. The statistical model included effects of treatment (TRT), dog, dog by treatment (TRT*DOG; error term used to assess treatment and dog effects), time (HR), treatment by time (TRT*HR), and residual error (SE; used to test remaining effects). Behavior data were collected and analyzed as counts per time period, but for clarity of presentation, the data are reported as percentage of time dogs engaged in each behavior.
In Study 2, the dogs were exposed to the same treatments as in Study 1, except a startle was also applied. An aerosol can (Pet Corrector, The Company of Animals, Surrey, UK) was used to make a loud hissing noise and a spray of liquid as a startle. The protocol involved spraying the Rabbit Pheromone at 0, 30, 60, and 90 min (RP; 1 μg/mL) or collar application (PLACEBO, SERG, or DAPC) at time zero. Each dog was startled at 45 minutes. Data were recorded for 120 minutes. Data reporting periods were: 0 (0-30 min), 30 (30-60 min), and 90 (90-120 min).

nervous dogs (dogs 5-8) = experiment: Example 11 Study 4: room diffusers over 24 hours; assay type: in vivo, dog; conditions: for heart rate and surface temperature of individual dogs: compared with Placebo, FIGS. 17A and 17B
Description: as §1, §2, §3, §4
In Study 4, putative pheromones were examined as room diffusers. Room diffusers were obtained and different liquid odors were applied over a 24 hour period. In contrast to Studies 1, 2, and 3, heart rates and behavior data were obtained over 24 hours (rather than just 2 hours after treatment application as in the other studies) and a baseline day was included in the dataset. Similar to Studies 1, 2, and 3, each dog experienced each treatment on different days in random order. The following treatment groups were evaluated: Baseline, Placebo Formula H Pheromone (SERG), DAP room diffuser (DAPRD; as available commercially) and the Rabbit Pheromone in diffuser form prepared in accordance with Example 4 (RPRD, 1 μg/mL). […]

dogs [2] = experiment: Overall conclusions and meta-analysis across Studies 1-4; assay type: in vivo, dog
Description: Three delivery methods were examined (collar, spray, and room diffuser) and conclusions may be drawn about their efficacy. First, the pheromones were similar in efficacy when applied as a collar or spray. When used as a room diffuser, the pheromones/INTEROMONE® compositions had fewer significant effects compared with when they were delivered in collar or spray form. […] Meta-analyses were performed across studies to identify potential over-arching effects (FIGS. 18A and B). […] The reaction of most dogs to handling or startle was to go lay down; but the dogs exposed to rabbit INTEROMONE®were more likely to sit. Other than this general effect, each other finding must be considered within the context of the form of delivery (spray, collar or room diffuser) and the response of individual dog.

[3] = 120 minutes after startle, SERG, DAPC collars, RP spray 1 μg/mL

## C/C=C(\C)C=O [RP, 2-methylbut-2-enal]
Anxious dogs; baseline phase, versus Placebo, FIG. 19
  heart rate over 24 hours with collar (overall and individual dogs): increased the heart rate of dog 1
Anxious dogs; collar, 110 dB Fog Horn startle, FIG. 20
  heart rate after startle (individual dogs): Dogs 1 and 4 had reduced heart rate
Anxious dogs; collar, after startle, FIG. 21, placebo 15 bpm
  decline in heart rate from hour of startle (hour 1) to next hour (hour 2), slope of regression: 26.6 bpm
Dogs [1]; FIG. 1
  reduction of average dog heart rate: 24.5 beats/min per hour
Dogs [1]; compared to marketed products and placebo
  heart rate reduction over the two hour period: 30%
Nervous dogs; [3]
  Defecate: 0.0 % of time
  Drink: 3.7 % of time
  Eat: 1.2 % of time
  Lick self: 0.0^b % of time
  Lying down: 46.4 % of time
  Pace-walk: 19.4 % of time
  Sitting: 53.8 % of time
  Standing: 23.4^b % of time
  Urinate: 0.0 % of time
Nervous dogs; FIGS. 8 and 9
  lying down and sitting behavior of individual dogs after startle: dogs 2, 3, 6 and 8 spent less time lying down but more time sitting after startle
Nervous dogs; in comparison to Placebo or SERG collars
  standing behavior after startle: increased standing behavior among RP-sprayed dogs
Nervous dogs (dogs 5-8); after room diffuser treatment, dogs 5-8, Placebo 30.9
  TEMP (surface temperature): 33.8
Nervous dogs (dogs 5-8); after room diffuser treatment, dogs 5-8, Placebo 79.6
  HR (overall heart rate): 108.4
Nervous dogs (dogs 5-8); room diffuser, 24 hours
  Defecate: 0.18% of time
  Drink: 0.18% of time
  Eat: 0.26% of time
  Lick self: 0.09% of time
  Lying down: 87.0% of time
  Pace-: 5.67% of time
  Sitting: 5.00% of time
  Standing: 1.42% of time
  Urinate: 0.26% of time
Nervous dogs (dogs 5-8); room diffuser, FIG. 16
  drinking behavior of individual dogs: dog 7 showed increased drinking
Nervous dogs (dogs 5-8); room diffuser
  heart rate and surface temperature of individual dogs: increased the surface temperature of dog 7 compared to placebo
Nervous dogs (dogs 5-8); room diffuser, listed as rabbit pheromone
  heart rate and surface temperature of individual dogs: Dog 5 had elevated HR and surface temperature; also recorded: Dog 6 had increased heart rate and decreased surface temperature
Nervous dogs (dogs 5-8); room diffuser, increased to
  heart rate of dog 5: about 200 bpm
Dogs [2]; Studies 1, 2 and 4, FIG. 18
  behaviors in meta-analysis across studies: Only dog sitting behavior was increased
Dogs [2]; collar, spray and room diffuser, all four studies
  overall effect on dog behavior and physiology: most consistent or largest effect on dog behavior and physiology

Reference: patent US8741965B2, “Method of administering a pheromone composition to an animal to modify the animals behavior over an extended period of time” (Sergeant's Pet Care Products, Inc., priority 2011, dated 2014)
